In patent publication US20210206758A1, “NAPHTHYRIDINES AS INTEGRIN ANTAGONISTS” (GlaxoSmithKline Intellectual Property Development Limited, priority 2016, published 2021):
Where “and” joins values, the source holds several entries; their conditions need not be identical. Identical values can stand only once.

What was measured:
Assay type in all cases: cell-based
[1] = molecular target: T1, αvβ6 (Homo sapiens, UniProt P06756+P18564); assay: Cell adhesion assay, K562-αvβ6 (LAP-b1); conditions: K562-αvβ6 cells, ligand LAP-b1, 2 mM MgCl2; for IC50: mean, read-out: αvβ6 pIC50 (mean affinity, cell Adhesion Assay) (converted)
T1 construct: expressed in transfected cells; host or cells: K562
Protocol: (§1) Reagents and methods utilised are as described [Ludbrook et al, Biochem. J. 2003, 369, 311 and Macdonald et al. ACS Med. Chem. Lett. 2014, 5, 1207-1212 for αvβ8 assay), with the following points of clarification. The following cell lines are used, with ligands in brackets: K562-αvβ3 (LAP-b1), K562-αvβ5 (Vitronectin), K562-αvβ6 (LAP-b1), K562-αvβ8 (LAP-b1), A549-αvβ1 (LAP-b1). The divalent cation used to facilitate adhesion is 2 mM MgCl2. Adhesion is quantified by cell labelling with the fluorescent dye BCECF-AM (Life Technologies), where cell suspensions at 3×10^6 cells/mL are incubated with 0.33 uL/mL of 30 mM BCECF-AM at 37° C. for 10 minutes, then 50 μL/well are dispensed into the 96-well assay plate. At the assay conclusion cells that adhered are lysed using 50 μL/well of 0.5% Triton X-100 in H2O to release fluorescence. Fluorescence intensity is detected using an Envision® plate reader (Perkin Elmer). For active antagonists in the assay, data is fitted to a 4 parameter logistic equation for IC50 determinations.

[2] = molecular target: T2, αvβ5 (Homo sapiens, UniProt P06756+P18084); assay: Cell adhesion assay, K562-αvβ5 (Vitronectin); conditions: K562-αvβ5 cells, ligand Vitronectin, 2 mM MgCl2; for IC50: mean, read-out: αvβ5 pIC50 (mean affinity, cell Adhesion Assay) (converted)
T2 construct: expressed in transfected cells; host or cells: K562
Protocol: as §1

[3] = molecular target: T3, αvβ1 (Homo sapiens, UniProt P05556+P06756); assay: Cell adhesion assay, A549-αvβ1 (LAP-b1); conditions: A549-αvβ1 cells, ligand LAP-b1, 2 mM MgCl2; for IC50: mean, read-out: αvβ1 pIC50 (mean affinity, cell Adhesion Assay) (converted)
T3 construct: host or cells: A549
Protocol: as §1

[4] = molecular target: T4, αvβ8 (Homo sapiens, UniProt P06756+P26012); assay: Cell adhesion assay, K562-αvβ8 (LAP-b1); conditions: K562-αvβ8 cells, ligand LAP-b1, 2 mM MgCl2; for IC50: mean, read-out: αvβ8 pIC50 (mean affinity, cell Adhesion Assay) (converted)
T4 construct: expressed in transfected cells; host or cells: K562
Protocol: as §1

[5] = molecular target: T5, αvβ3 (Homo sapiens, UniProt P05106+P06756); assay: Cell adhesion assay, K562-αvβ3 (LAP-b1); conditions: K562-αvβ3 cells, ligand LAP-b1, 2 mM MgCl2; for IC50: mean, read-out: αvβ3 pIC50 (mean affinity, cell Adhesion Assay) (converted)
T5 construct: expressed in transfected cells; host or cells: K562
Protocol: as §1

T4 sequence (P06756 31-889 limits assumed): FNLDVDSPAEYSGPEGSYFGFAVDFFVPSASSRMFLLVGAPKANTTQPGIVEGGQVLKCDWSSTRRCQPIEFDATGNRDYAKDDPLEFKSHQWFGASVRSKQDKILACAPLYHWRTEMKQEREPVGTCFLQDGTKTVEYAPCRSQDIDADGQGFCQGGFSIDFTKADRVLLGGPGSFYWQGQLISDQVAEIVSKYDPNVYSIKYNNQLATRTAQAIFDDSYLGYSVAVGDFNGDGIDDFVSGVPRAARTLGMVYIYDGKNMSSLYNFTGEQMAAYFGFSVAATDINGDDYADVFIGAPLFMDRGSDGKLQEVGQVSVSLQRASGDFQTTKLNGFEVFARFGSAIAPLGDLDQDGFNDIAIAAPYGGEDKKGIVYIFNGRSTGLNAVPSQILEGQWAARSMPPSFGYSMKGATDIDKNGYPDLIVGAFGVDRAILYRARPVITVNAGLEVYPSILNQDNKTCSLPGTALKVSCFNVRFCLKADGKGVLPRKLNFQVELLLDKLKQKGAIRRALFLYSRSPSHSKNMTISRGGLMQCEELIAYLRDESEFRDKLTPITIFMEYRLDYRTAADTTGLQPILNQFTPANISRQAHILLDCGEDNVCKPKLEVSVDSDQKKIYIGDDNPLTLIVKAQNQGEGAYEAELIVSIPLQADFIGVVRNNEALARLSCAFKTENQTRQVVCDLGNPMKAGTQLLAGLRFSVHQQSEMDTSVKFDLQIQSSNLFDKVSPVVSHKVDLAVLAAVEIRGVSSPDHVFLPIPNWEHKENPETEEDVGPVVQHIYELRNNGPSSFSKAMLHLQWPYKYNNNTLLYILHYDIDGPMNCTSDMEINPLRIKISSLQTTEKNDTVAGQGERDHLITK
T4 sequence (P06756 891-1048 partner limits assumed): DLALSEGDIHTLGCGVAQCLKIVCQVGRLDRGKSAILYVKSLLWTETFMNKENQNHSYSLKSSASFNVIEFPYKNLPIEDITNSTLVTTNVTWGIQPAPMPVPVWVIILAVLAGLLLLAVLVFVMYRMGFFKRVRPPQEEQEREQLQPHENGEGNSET
T4 sequence (P26012 43-769): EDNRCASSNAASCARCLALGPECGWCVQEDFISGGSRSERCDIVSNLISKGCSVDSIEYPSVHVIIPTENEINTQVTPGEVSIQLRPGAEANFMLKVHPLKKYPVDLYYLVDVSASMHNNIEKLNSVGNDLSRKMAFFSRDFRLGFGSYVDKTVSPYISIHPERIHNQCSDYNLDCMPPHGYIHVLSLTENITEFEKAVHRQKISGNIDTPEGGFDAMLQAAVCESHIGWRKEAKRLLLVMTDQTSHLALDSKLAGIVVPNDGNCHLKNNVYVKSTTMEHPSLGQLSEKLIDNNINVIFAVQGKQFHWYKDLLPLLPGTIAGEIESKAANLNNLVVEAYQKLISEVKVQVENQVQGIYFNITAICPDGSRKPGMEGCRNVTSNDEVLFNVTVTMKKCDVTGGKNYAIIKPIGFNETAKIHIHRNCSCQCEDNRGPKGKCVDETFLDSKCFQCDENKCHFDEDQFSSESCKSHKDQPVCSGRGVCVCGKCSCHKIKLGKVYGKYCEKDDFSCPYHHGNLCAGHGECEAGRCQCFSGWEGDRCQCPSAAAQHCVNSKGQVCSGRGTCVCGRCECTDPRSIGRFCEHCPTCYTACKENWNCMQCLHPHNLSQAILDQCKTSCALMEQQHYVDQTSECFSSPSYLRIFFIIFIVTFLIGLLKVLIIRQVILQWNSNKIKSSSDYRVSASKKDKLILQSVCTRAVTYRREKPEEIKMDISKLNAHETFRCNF
T2 sequence (P06756 31-889 limits assumed): as the sequence (P06756 31-889 limits assumed) above
T2 sequence (P06756 891-1048 partner limits assumed): as the sequence (P06756 891-1048 partner limits assumed) above
T2 sequence (P18084 24-799): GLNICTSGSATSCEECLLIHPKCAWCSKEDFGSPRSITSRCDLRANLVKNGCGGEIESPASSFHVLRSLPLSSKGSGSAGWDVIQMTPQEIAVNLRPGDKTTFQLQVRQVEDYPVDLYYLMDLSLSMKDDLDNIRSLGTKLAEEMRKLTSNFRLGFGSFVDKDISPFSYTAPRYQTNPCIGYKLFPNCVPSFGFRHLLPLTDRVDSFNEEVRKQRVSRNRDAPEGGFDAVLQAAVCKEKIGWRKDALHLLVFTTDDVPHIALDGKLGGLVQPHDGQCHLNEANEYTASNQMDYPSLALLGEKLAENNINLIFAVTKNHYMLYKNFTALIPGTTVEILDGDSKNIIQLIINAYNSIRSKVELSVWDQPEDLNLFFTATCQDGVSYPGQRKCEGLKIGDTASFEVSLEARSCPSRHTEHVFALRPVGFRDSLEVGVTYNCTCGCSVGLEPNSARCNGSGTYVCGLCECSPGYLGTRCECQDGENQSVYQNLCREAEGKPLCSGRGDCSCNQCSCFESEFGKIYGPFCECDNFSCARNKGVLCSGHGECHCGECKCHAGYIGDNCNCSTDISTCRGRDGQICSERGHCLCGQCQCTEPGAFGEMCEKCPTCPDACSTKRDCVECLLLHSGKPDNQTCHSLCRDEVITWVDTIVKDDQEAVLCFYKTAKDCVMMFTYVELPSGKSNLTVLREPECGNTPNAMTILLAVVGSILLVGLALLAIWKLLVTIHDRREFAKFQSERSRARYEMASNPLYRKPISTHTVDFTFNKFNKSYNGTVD
T1 sequence (P06756 31-889 limits assumed): as the sequence (P06756 31-889 limits assumed) above
T1 sequence (P06756 891-1048 partner limits assumed): as the sequence (P06756 891-1048 partner limits assumed) above
T1 sequence (P18564 22-788): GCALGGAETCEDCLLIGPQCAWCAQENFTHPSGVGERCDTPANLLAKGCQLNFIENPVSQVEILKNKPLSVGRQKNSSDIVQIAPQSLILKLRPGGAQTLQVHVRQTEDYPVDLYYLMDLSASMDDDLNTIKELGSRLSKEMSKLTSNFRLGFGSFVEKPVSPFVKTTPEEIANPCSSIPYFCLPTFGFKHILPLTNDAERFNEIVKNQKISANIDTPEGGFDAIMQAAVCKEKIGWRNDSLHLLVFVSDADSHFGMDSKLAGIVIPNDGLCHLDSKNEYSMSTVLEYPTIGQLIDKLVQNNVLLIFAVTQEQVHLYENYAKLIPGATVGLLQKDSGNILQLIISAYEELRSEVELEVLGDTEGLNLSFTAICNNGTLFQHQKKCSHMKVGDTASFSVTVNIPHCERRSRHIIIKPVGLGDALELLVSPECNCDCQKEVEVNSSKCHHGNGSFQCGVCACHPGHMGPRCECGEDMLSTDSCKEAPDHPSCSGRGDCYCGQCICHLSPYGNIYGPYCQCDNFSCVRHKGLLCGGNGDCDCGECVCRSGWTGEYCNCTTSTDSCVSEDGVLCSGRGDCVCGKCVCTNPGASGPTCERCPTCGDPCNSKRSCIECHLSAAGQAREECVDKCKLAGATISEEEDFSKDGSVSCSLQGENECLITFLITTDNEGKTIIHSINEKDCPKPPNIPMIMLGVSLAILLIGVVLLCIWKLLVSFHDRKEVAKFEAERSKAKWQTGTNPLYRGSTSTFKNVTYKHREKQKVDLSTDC
T3 sequence (P06756 31-889 limits assumed): as the sequence (P06756 31-889 limits assumed) above
T3 sequence (P06756 891-1048 partner limits assumed): as the sequence (P06756 891-1048 partner limits assumed) above
T3 sequence (P05556 21-798): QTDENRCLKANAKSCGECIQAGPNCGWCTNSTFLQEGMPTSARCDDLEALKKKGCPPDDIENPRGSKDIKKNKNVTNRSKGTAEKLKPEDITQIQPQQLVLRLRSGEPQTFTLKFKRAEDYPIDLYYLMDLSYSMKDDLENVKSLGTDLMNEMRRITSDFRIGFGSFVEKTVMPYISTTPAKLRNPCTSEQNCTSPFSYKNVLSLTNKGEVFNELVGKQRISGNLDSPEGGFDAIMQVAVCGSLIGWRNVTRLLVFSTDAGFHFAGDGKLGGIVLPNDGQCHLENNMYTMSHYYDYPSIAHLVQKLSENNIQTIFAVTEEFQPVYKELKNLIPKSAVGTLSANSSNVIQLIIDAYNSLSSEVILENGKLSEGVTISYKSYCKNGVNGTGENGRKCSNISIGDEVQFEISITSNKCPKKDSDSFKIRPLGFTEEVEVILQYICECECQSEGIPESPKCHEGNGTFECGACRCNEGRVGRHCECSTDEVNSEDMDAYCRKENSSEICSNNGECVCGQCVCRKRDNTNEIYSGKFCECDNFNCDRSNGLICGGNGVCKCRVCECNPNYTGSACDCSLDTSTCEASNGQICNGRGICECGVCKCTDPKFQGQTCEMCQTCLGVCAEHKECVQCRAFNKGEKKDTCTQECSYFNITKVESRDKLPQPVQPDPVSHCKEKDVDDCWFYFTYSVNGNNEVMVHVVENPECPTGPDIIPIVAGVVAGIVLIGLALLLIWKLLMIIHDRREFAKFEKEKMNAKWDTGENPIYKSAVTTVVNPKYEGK

Row | Structure (SMILES) | IC50 [1] | IC50 [2] | IC50 [3] | IC50 [4] | IC50 [5] | αvβ5 pIC50 (mean affinity, cell Adhesion Assay) [2] | αvβ1 pIC50 (mean affinity, cell Adhesion Assay) [3] | αvβ3 pIC50 (mean affinity, cell Adhesion Assay) [5] | αvβ6 pIC50 (mean affinity, cell Adhesion Assay) [1] | αvβ8 pIC50 (mean affinity, cell Adhesion Assay) [4]
1 | O=C(O)C[C@H](CN1CC[C@@](F)(CCc2ccc3c(n2)NCCC3)C1)c1cccc(O[C@@H]2CCOC2)c1 [Example 3, (S)-4-((S)-3-Fluoro-3-(2-(5,6,7,8-tetrahydro-1,8-naphthyridin-2-yl)ethyl)pyrrolidin-1-yl)-3-(3-(((R)-tetrahydrofuran-3-yl)oxy)phenyl)butanoic acid] | 5.01 nM | 39.8 nM | 200 nM | 50.1 nM | 100 nM | – | – | – | – | –
2 | O=C(O)C[C@H](CN1CC[C@@](F)(CCc2ccc3c(n2)NCCC3)C1)c1cccc(O[C@H]2CCOC2)c1 [Example 4, (S)-4-((S)-3-Fluoro-3-(2-(5,6,7,8-tetrahydro-1,8-naphthyridin-2-yl)ethyl)pyrrolidin-1-yl)-3-(3-(((S)-tetrahydrofuran-3-yl)oxy)phenyl)butanoic acid] | 5.01 nM | 79.4 nM | 100 nM | 31.6 nM | 50.1 nM | – | – | – | – | –
3 | COCCOc1cc(OCCOC)cc([C@H](CC(=O)O)CN2CC[C@@](F)(CCc3ccc4c(n3)NCCC4)C2)c1 [Example 9, (S)-3-(3,5-Bis(2-methoxyethoxy)phenyl)-4-((S)-3-fluoro-3-(2-(5,6,7,8-tetrahydro-1,8-naphthyridin-2-yl)ethyl)pyrrolidin-1-yl)butanoic acid] | 10 nM | – | 1000 nM | 50.1 nM | – | – | – | – | – | –
4 | COCCOc1cc(OCCF)cc(C(CC(=O)O)CN2CC[C@@](F)(CCc3ccc4c(n3)NCCC4)C2)c1 (stereo partly drawn) [Example 13, 4-((S)-3-Fluoro-3-(2-(5,6,7,8-tetrahydro-1,8-naphthyridin-2-yl)ethyl)pyrrolidin-1-yl)-3-(3-(2-fluoroethoxy)-5-(2-methoxyethoxy)phenyl)butanoic acid] | 10 nM | 100 nM | 126 nM | 31.6 nM | 79.4 nM | – | – | – | – | –
5 | COCCOc1ccc(F)c(C(CC(=O)O)CN2CC[C@@](F)(CCc3ccc4c(n3)NCCC4)C2)c1 (stereo partly drawn) [Example 14, 4-((S)-3-Fluoro-3-(2-(5,6,7,8-tetrahydro-1,8-naphthyridin-2-yl)ethyl)pyrrolidin-1-yl)-3-(2-fluoro-5-(2-methoxyethoxy)phenyl)butanoic acid] | 25.1 nM | 25.1 nM | 2000 nM | 158 nM | 501 nM | – | – | – | – | –
6 | O=C(O)CC(O)(CC(=O)O)C(=O)O.O=C(O)C[C@H](CN1CC[C@@](F)(CCc2ccc3c(n2)NCCC3)C1)c1cccc(O[C@@H]2CCOC2)c1 [Example 16, (S)-4-((S)-3-Fluoro-3-(2-(5,6,7,8-tetrahydro-1,8-naphthyridin-2-yl)ethyl)pyrrolidin-1-yl)-3-(3-(((R)-tetrahydrofuran-3-yl)oxy)phenyl)butanoic acid (1:1) citrate salt] | – | – | – | – | – | 7.4 | 6.8 | 7.6 | – | –
7 | O=C(O)/C=C\C(=O)O.O=C(O)C[C@H](CN1CC[C@@](F)(CCc2ccc3c(n2)NCCC3)C1)c1cccc(O[C@@H]2CCOC2)c1 [Example 17, (S)-4-((S)-3-Fluoro-3-(2-(5,6,7,8-tetrahydro-1,8-naphthyridin-2-yl)ethyl)pyrrolidin-1-yl)-3-(3-(((R)-tetrahydrofuran-3-yl)oxy)phenyl)butanoic acid (1:1) maleate salt] | – | – | – | – | – | 8.1 | 6.9 | 7.3 | 8.2 | 7.7
8 | O=C(O)CC(O)(CC(=O)O)C(=O)O.O=C(O)C[C@H](CN1CC[C@@](F)(CCc2ccc3c(n2)NCCC3)C1)c1cccc(O[C@H]2CCOC2)c1 [Example 18, (S)-4-((S)-3-Fluoro-3-(2-(5,6,7,8-tetrahydro-1,8-naphthyridin-2-yl)ethyl)pyrrolidin-1-yl)-3-(3-(((S)-tetrahydrofuran-3-yl)oxy)phenyl)butanoic acid (1:1) citrate salt] | – | – | – | – | – | 7.5 | 6.4 | 7.3 | 8.3 | 7.7

Now from value to molecule, other results behind:

Row | IC50 [1] | IC50 [2] | IC50 [3] | IC50 [4] | IC50 [5] | Structure (SMILES) | αvβ5 pIC50 (mean affinity, cell Adhesion Assay) [2] | αvβ1 pIC50 (mean affinity, cell Adhesion Assay) [3] | αvβ3 pIC50 (mean affinity, cell Adhesion Assay) [5] | αvβ6 pIC50 (mean affinity, cell Adhesion Assay) [1] | αvβ8 pIC50 (mean affinity, cell Adhesion Assay) [4]
9 | 12.6 nM | 79.4 nM | 398 nM | 20 nM | 63.1 nM | O=C(O)C[C@H](CN1CC[C@@](F)(CCc2ccc3c(n2)NCCC3)C1)c1cccc(C2CCOC2)c1 (single isomer, unassigned; isomer 1) [Example 10] | – | – | – | – | –
10 | – | 126 nM | 126 nM | – | – | O=C(O)C[C@H](CN1CC[C@@](F)(CCc2ccc3c(n2)NCCC3)C1)c1cccc(C2CCOC2)c1 (single isomer, unassigned; isomer 2) [Example 11] | – | – | – | – | –
11 | 25.1 nM | 251 nM | 2000 nM | 100 nM | 79.4 nM | O=C(O)C[C@H](CN1CC[C@@](F)(CCc2ccc3c(n2)NCCC3)C1)c1cccc(OC[C@H]2CCCO2)c1 [Example 1, (S)-4-((S)-3-Fluoro-3-(2-(5,6,7,8-tetrahydro-1,8-naphthyridin-2-yl)ethyl)pyrrolidin-1-yl)-3-(3-(((R)-tetrahydrofuran-2-yl)methoxy)phenyl)butanoic acid] | – | – | – | – | –
12 | 15.8 nM | 100 nM | 1000 nM | 100 nM | – | O=C(O)C[C@H](CN1CC[C@@](F)(CCc2ccc3c(n2)NCCC3)C1)c1cccc(OC[C@@H]2CCCO2)c1 [Example 2, (S)-4-((S)-3-Fluoro-3-(2-(5,6,7,8-tetrahydro-1,8-naphthyridin-2-yl)ethyl)pyrrolidin-1-yl)-3-(3-(((S)-tetrahydrofuran-2-yl)methoxy)phenyl)butanoic acid] | – | – | – | – | –
13 | 12.6 nM | 25.1 nM | 200 nM | 31.6 nM | 31.6 nM | CO[C@H](C)COc1cccc([C@H](CC(=O)O)CN2CC[C@@](F)(CCc3ccc4c(n3)NCCC4)C2)c1 [Example 5] | – | – | – | – | –
14 | 12.6 nM | 316 nM | 126 nM | 39.8 nM | 63.1 nM | CO[C@@H](C)COc1cccc([C@H](CC(=O)O)CN2CC[C@@](F)(CCc3ccc4c(n3)NCCC4)C2)c1 [Example 6] | – | – | – | – | –
15 | 20 nM | 63.1 nM | 63.1 nM | 50.1 nM | 79.4 nM | COCC(C)(C)Oc1cccc([C@H](CC(=O)O)CN2CC[C@@](F)(CCc3ccc4c(n3)NCCC4)C2)c1 [Example 7, (S)-4-((S)-3-Fluoro-3-(2-(5,6,7,8-tetrahydro-1,8-naphthyridin-2-yl)ethyl)pyrrolidin-1-yl)-3-(3-((1-methoxy-2-methylpropan-2-yl)oxy)phenyl)butanoic acid] | – | – | – | – | –
16 | 12.6 nM | 63.1 nM | 398 nM | 31.6 nM | 100 nM | O=C(O)C[C@H](CN1CC[C@@](F)(CCc2ccc3c(n2)NCCC3)C1)c1cccc(OC2COC2)c1 [Example 8, (S)-4-((S)-3-Fluoro-3-(2-(5,6,7,8-tetrahydro-1,8-naphthyridin-2-yl)ethyl)pyrrolidin-1-yl)-3-(3-(oxetan-3-yloxy)phenyl)butanoic acid] | – | – | – | – | –
17 | 15.8 nM | 31.6 nM | 251 nM | 25.1 nM | 63.1 nM | O=C(O)C[C@H](CN1CC[C@@](F)(CCc2ccc3c(n2)NCCC3)C1)c1cccc(OCC2COC2)c1 [Example 12, (S)-4-((S)-3-Fluoro-3-(2-(5,6,7,8-tetrahydro-1,8-naphthyridin-2-yl)ethyl)pyrrolidin-1-yl)-3-(3-(oxetan-3-ylmethoxy)phenyl)butanoic acid] | – | – | – | – | –
18 | 10 nM and 12.6 nM | 39.8 nM | 316 nM | – | 20 nM | O=C(O)C[C@H](CN1CC[C@@](F)(CCc2ccc3c(n2)NCCC3)C1)c1cccc(OC2CCOCC2)c1 [Example 15, (S)-4-((S)-3-Fluoro-3-(2-(5,6,7,8-tetrahydro-1,8-naphthyridin-2-yl)ethyl)pyrrolidin-1-yl)-3-(3-((tetrahydro-2H-pyran-4-yl)oxy)phenyl)butanoic acid] | – | – | – | – | –
